For 1 compound, GI50 results are on record in US9290481B2, “Monocyclic heteroaryl cycloalkyldiamine derivatives” (NOVARTIS AG, priority 2012, dated 2016).

Assay [1] has as its system OCl-Ly3 cells. Nature of the assay: B-cell lymphoma cell proliferation (WST-1 assay), OCl-Ly3. Type of assay: cell-based. The following applies: 4 days of incubation. On the procedure:
Cell proliferation was determined using the WST-1 assay (Roche, Mannheim, Germany), which measures the metabolic activity of the cells. […] The cell proliferation reagent WST-1 (10 μl/well) was added to the cells for 1-2 hours depending on the cell type which were cultured in 200 μl of medium. The absorbance was then measured with an enzyme-linked immunosorbent assay plate reader at a wavelength of 450 nm.

Assay [2] has as its system OCl-Ly10 cells. The assay is described as follows: B-cell lymphoma cell proliferation (WST-1 assay), OCl-Ly10. Type of assay: cell-based. The following applies: 72 h, 3 days of incubation. The protocol:
Cell proliferation was determined using the WST-1 assay (Roche, Mannheim, Germany), which measures the metabolic activity of the cells. Briefly, 5×10^5 TMD-8, OCl-Ly3, and OCl-Ly10 cells/well and 10×10^5 HBL-1 cells/well were seeded in triplicate in 96-well plates and were incubated with various concentrations of compounds to be tested for 3 days. The cell proliferation reagent WST-1 (10 μl/well) was added to the cells for 1-2 hours depending on the cell type which were cultured in 200 μl of medium. The absorbance was then measured with an enzyme-linked immunosorbent assay plate reader at a wavelength of 450 nm.

SMILES strings stand for the structures.

By GI50 is commonly meant the concentration that inhibits growth by half. Higher therefore signals less potent growth inhibition. `NC(=O)c1nnc(N[C@@H]2CCCC[C@@H]2N)nc1Nc1cccc2cc[nH]c12` [Example 1.1, 3-((1R,2S)-2-Amino-cyclohexylamino)-5-(1H-indol-7-ylamino)-[1,2,4]triazine-6-carboxylic acid amide]: the GI50 entry is “No inhibition” in assay [1] and 25 nM in assay [2].
